The structures appear in SMILES notation.

The values that follow come from patent publication US20120252804A1, “COMPOSITION AND METHOD FOR CONTROLLING ARTHROPOD PESTS” (SUMITOMO CHEMICAL COMPANY, LIMITED, priority 2009, published 2012).

Common to all, as to assay type: in vivo
Test [1] has as its system Sweetpotato Whitefly (Bemisia tabaci). The experiment in a line: Test Example 2: pesticidal effect of leaf dipping treatment on Sweetpotato Whitefly. The note with it: composition of the compound and pyriproxyfen; cabbage leaf disk with eggs dipped 30 seconds, after 8 days; summary of Table 44.
Test [2] has as its system brown planthopper (Nilaparvata lugens). As to the kind of experiment: Test Example 1: pesticidal effect against brown planthopper by foliage spray treatment of rice. The conditions noted are these: composition of the compound and pyriproxyfen; foliage spray on rice seedlings, third-instar larvae, after 5 days; summary of Table 43.
Test [3] deals with Sweetpotato Whitefly (Bemisia tabaci). As to the kind of experiment: Test Example 4: pesticidal effect of leaf dipping treatment on Sweetpotato Whitefly. The conditions noted are these: composition of the compound and pyriproxyfen; cabbage leaf disk with eggs dipped 30 seconds, after 8 days; summary of Table 46.
For test [4], the system named is brown planthopper (Nilaparvata lugens). As to the kind of experiment: Test Example 3: pesticidal effect against brown planthopper by foliage spray treatment of rice. The conditions noted are these: composition of the compound and pyriproxyfen; foliage spray on rice seedlings, third-instar larvae, after 5 days; summary of Table 45.

For the molecule `FC(F)(F)c1ccc2oc(-c3ccncc3Cl)nc2c1` [Compound 18, 2-(3-chloropyridin-4-yl)-5-(trifluoromethyl)benzoxazole], the “pesticidal efficacy on Sweetpotato Whitefly (Bemisia tabaci)” value (shortened to “pesticidal efficacy … (Bemisia tabaci)”) in test [1] is “high pesticidal efficacy”. The “pesticidal efficacy against brown planthopper (Nilaparvata lugens)” value (“pesticidal efficacy … (Nilaparvata lugens)” for short) in test [2] is “high pesticidal efficacy”.
Regarding `FC(F)(F)COc1cnccc1-c1nc2cc(C(F)(F)F)ccc2o1` [Compound 39, 2-[3-(2,2,2-trifluoroethyl)oxypyridin-4-yl]-5-(trifluoromethyl)benzoxazole], in test [3], the “pesticidal efficacy … (Bemisia tabaci)” value is “high pesticidal efficacy”. In addition, the “pesticidal efficacy … (Nilaparvata lugens)” value in test [4] was “high pesticidal efficacy”.
`CC(C)Oc1cnccc1-c1nc2cc(C(F)(F)F)ccc2o1` [Compound 70, 2-(3-isopropoxypyridin-4-yl)-5-(trifluoromethyl)benzoxazole]: in test [1], the “pesticidal efficacy … (Bemisia tabaci)” value is listed as “high pesticidal efficacy”. Besides, the “pesticidal efficacy … (Nilaparvata lugens)” value in test [2] is recorded as “high pesticidal efficacy”.
Take `FC(F)(F)Sc1ccc2oc(-c3ccncc3Cl)nc2c1` [Compound 77, 2-(3-chloropyridin-4-yl)-5-(trifluoromethylthio)benzoxazole]: the “pesticidal efficacy … (Bemisia tabaci)” value in test [1] is “high pesticidal efficacy”. In addition, in test [2], the “pesticidal efficacy … (Nilaparvata lugens)” value is given as “high pesticidal efficacy”.
With `CCc1cnccc1-c1nc2cc(OC(F)(F)F)ccc2o1` [Compound 109, 2-(3-ethylpyridin-4-yl)-5-(trifluoromethoxy)benzoxazole], the “pesticidal efficacy … (Bemisia tabaci)” value in test [1] is given as “high pesticidal efficacy”. Besides, the “pesticidal efficacy … (Nilaparvata lugens)” value in test [2] was “high pesticidal efficacy”.
On to `CC(C)COc1cnccc1-c1nc2cc(C(F)(F)F)ccc2o1` [Compound 116, 2-(3-isobutoxypyridin-4-yl)-5-(trifluoromethyl)benzoxazole], for which the “pesticidal efficacy … (Bemisia tabaci)” value in test [3] was “high pesticidal efficacy”. In addition, the “pesticidal efficacy … (Nilaparvata lugens)” value in test [4] is on record as “high pesticidal efficacy”.
For the molecule `CC(C)(C)COc1cnccc1-c1nc2cc(C(F)(F)F)ccc2o1` [Compound 117, 2-[3-(2,2-dimethylpropoxy)pyridin-4-yl]-5-(trifluoromethyl)benzoxazole], the “pesticidal efficacy … (Bemisia tabaci)” value in test [3] is reported as “high pesticidal efficacy”. Also, the “pesticidal efficacy … (Nilaparvata lugens)” value in test [4] is listed as “high pesticidal efficacy”.
For the molecule `FC(F)(F)c1ccc2oc(-c3ccncc3-c3cccnc3)nc2c1` [Compound 128, 4-(5-trifluoromethyl-benzoxazole-2-yl)-[3,3]bipyridinyl], the “pesticidal efficacy … (Bemisia tabaci)” value in test [1] is reported as “high pesticidal efficacy”. Besides, the “pesticidal efficacy … (Nilaparvata lugens)” value in test [2] was “high pesticidal efficacy”.
For `FC(F)(F)c1cnc2oc(-c3ccncc3Cl)nc2c1` [Compound 139, 2-(3-chloropyridin-4-yl)-6-(trifluoromethyl)oxazolo[5,4-b]pyridine], the “pesticidal efficacy … (Bemisia tabaci)” value in test [1] is on record as “high pesticidal efficacy”. The “pesticidal efficacy … (Nilaparvata lugens)” value in test [2] is listed as “high pesticidal efficacy”.
As to `CCc1cnccc1-c1nc2cc(C(F)(F)F)cnc2o1` [Compound 143, 2-(3-ethylpyridin-4-yl)-6-(trifluoromethyl)oxazolo[5,4-b]pyridine], the “pesticidal efficacy … (Bemisia tabaci)” value in test [1] is “high pesticidal efficacy”. For the same molecule, the “pesticidal efficacy … (Nilaparvata lugens)” value in test [2] is reported as “high pesticidal efficacy”.
Consider `CSc1cnccc1-c1nc2cc(C(F)(F)F)cnc2o1` [Compound 146, 2-(3-methylthiopyridin-4-yl)-6-(trifluoromethyl)oxazolo[5,4-b]pyridine], for which the “pesticidal efficacy … (Bemisia tabaci)” value in test [1] is listed as “high pesticidal efficacy”. In addition, in test [2], the “pesticidal efficacy … (Nilaparvata lugens)” value is listed as “high pesticidal efficacy”.
With `FC(F)(F)COc1cnccc1-c1nc2cc(C(F)(F)F)cnc2o1` [Compound 163], the “pesticidal efficacy … (Bemisia tabaci)” value in test [3] is listed as “high pesticidal efficacy”. Further, the “pesticidal efficacy … (Nilaparvata lugens)” value in test [4] is listed as “high pesticidal efficacy”.
